Experimental data reported in patent EP0381335A1, “Antiviral agent and novel nucleoside” (TANABE SEIYAKU CO., LTD., priority 1989, dated 1990).
Read-outs that look alike come from different tables or passages of the source.

Columns and labels:
[1] = system: HIV; test: Anti-HIV assay: protection of HIV-infected MT-4 cells against cytopathic effect (trypan blue exclusion / MTT method); format: cell-based
Method: (§1) The anti-HIV activity of the agents that are subject of the present invention was measured according to the method of E. De Clercq et al. (The Journal of Virological Methods, 16 : 171 - 185 (1987) and The Journal of Virological Methods, 20 : 309-321 (1988)).
(§2) MT-4 cells of a 24 hours-old culture were suspended at 5 x 10⁵ cells per ml. Of this suspension, 2-ml portions were divided over polyisopropylene 2059 Falcon culture tubes (Becton Dickinson). The MT-4 cell suspensions were then centrifuged for 10 min at 140 x g and the supernatants were discarded. The MT-4 cell pellets were infected with 200 µl of a 1:5 HIV stock solution (titer 10³ CCID₅₀ ml; i.e., finally 10 CCID₅₀ well) in RPMI medium (composition as described above). Control MT-4 cell pellets were mock-infected with 200 µl RPMI medium. The culture tubes were then capsulated and subsequently incubated at 37 °C for 1.5 hours, upon which 1.8 ml of RPMI medium was added to each tube. The HIV-infected and mock-infected MT-4 cells were each pooled in two 45-ml centrifuge tubes.
(§3) Varying dilutions of the test compounds in RPMI medium were added in 100-µl volumes to the wells of a flat bottom, 96-well plastic microtiter tray (Sterilin Ltd. Teddington, Middlesex, England).
(§4) Of the HIV-infected or mock-infected MT-4 cell suspensions 100-µl volumes were added to the wells. The cell cultures were then incubated at 37 °C in a 5 % CO₂/95 % air humidified atmosphere. The cells remained in contact with the test compounds during the whole incubation period. Five days after infection the viability of the cells was examined microscopically in a hematocytometer by the trypan blue dye exclusion method.
(§5) Alternatively, viability of the cells was determined by the tetrazolium-based colorimetric method (MTT method) as described in the Journal of Virological Methods, 20 : 309 - 321 (1988).
(§6) Flat bottom, 96-well plastic mictrotiter trays (Falcon, Becton Dickinson, Mountain View, CA) were filled with 100 µl of complete medium using a Titertek® Multidrop dispenser (Flow Laboratories). This eight-channel dispenser could fill a microtiter tray in less than 10 s. Subsequently, stock solutions (10 x final test concentration) of compounds were added in 25 µl volumes to two series of triplicate wells so as to allow simultaneous evaluation of their effects on HIV- and mock-infected cells. Serial five-fold dilutions were made directly in the microtiter trays using an eight-channel Titertek® pipette (FLow Laboratories). Untreated control HIV- and mock-infected cell samples were included for each compound.
(§7) Exponentially growing MT-4 cells were centrifuged for 10 min at 140 x g and the supernatants were discarded. The pellet was either infected with 100 CCID₅₀ or mock-infected. The MT-4 cells were resuspended at 4 x 10⁵ cells/ml in two flasks which were connected with an autoclavable dispensing cassette of a Titertek® Multidrop dispenser. Under slight magnetic stirring 100-µl volumes were then transferred to the microtiter tray wells. The outer row wells were filled with 100 µl of medium. The cell cultures were incubated at 37 °C in a humidified atmosphere of 5 % CO₂ in air. The cells remained in contact with the test compounds during the whole incubation period. Five days after infection the viability of mock- and HIV infected cells was examined either microscopically in a hemacytometer by the trypan blue exclusion method or spectrophotometrically by the MTT method.
(§8) The MTT method is based on the reduction of the yellow coloured 3-(4,5-dimethylthiazol-2-yl)-2,5-diphenyltetrazolium bromide (MTT) (Sigma Chemical Co., St. Louis, MO) by mitochondrial dehydrogenases of metabolically active cells to a blue formazan which can be measured spectrophotometrically. Therefore, to each well of the microtiter trays, 20 µl of a solution of MTT (7.5 mg/ml) in phosphate-buffered saline was added using the Titertek® Multidrop. The trays were further incubated at 37 °C in a CO₂ incubator for the indicated times. […]

[2] = system: MT-4 cells; test: Cytotoxicity in mock-infected MT-4 cells (trypan blue exclusion / MTT method); format: cell-based; conditions: for HIV (µM) TD₅₀: human, 5 days
Method: as §1, §2, §3, §4, §5, §6, §7, §8

[3] = Human immunodeficiency virus 1, MT4, effective amount necessary for permitting the cells infected with HIV to live to the 5th day after infection, read-out: ED₅₀
[4] = Human immunodeficiency virus 1, MT4, 120 h, HIV-infected MT-4 cells, five days after infection, MTT method, dose achieving 50 % protection, read-out: HIV (µM) ED₅₀

Row | Structure (SMILES) | EC50 [1, 3] [µM] | EC50 [1, 4] [µM] | cytotoxicity ([2]; at the concentration of 500 µM) | cytotoxicity ([2]; at the concentration of 125 µM) | HIV (µM) TD₅₀ [2] [µM]
1 | NO[C@H]1C[C@H](n2ccc(N)nc2=O)O[C@@H]1CO [3′-O-amino-2′-deoxycytidine] | 61 | – | no cytotoxicity appeared | – | –
2 | Cc1cn([C@H]2C[C@H](ON)[C@@H](CO)O2)c(=O)[nH]c1=O [3′-O-aminothymidine] | 23 | – | – | only slight cytotoxicity appeared | –
3 | Cc1cn([C@H]2C[C@H](ONC=O)[C@@H](CO)O2)c(=O)[nH]c1=O [compound 1, 3′-O-formamidothymidine] | – | 13 | – | – | 144
4 | C=NO[C@H]1C[C@H](n2cc(C)c(=O)[nH]c2=O)O[C@@H]1CO [compound 2, 3′-O-methylideneaminothymidine] | – | 17 | – | – | 106
5 | CC(C)=NO[C@H]1C[C@H](n2cc(C)c(=O)[nH]c2=O)O[C@@H]1CO [compound 3, 3′-O-isopropylideneaminothymidine] | – | 32 | – | – | 313

Now from value to compound, other results behind:

Row | EC50 [1, 3] [µM] | EC50 [1, 4] [µM] | Structure (SMILES) | cytotoxicity ([2]; at the concentration of 500 µM) | cytotoxicity ([2]; at the concentration of 125 µM) | HIV (µM) TD₅₀ [2] [µM]
6 | 32 | 32 | NO[C@H]1C[C@H](n2cnc3c(N)ncnc32)O[C@@H]1CO [compound 4, 9-(3-O-amino-2-deoxy-β-D-erythro-pentofuranosyl)adenine] | – | – | 1000
7 | – | 2.17 | NO[C@H]1C[C@H](n2cnc3c(=O)[nH]c(N)nc32)O[C@@H]1CO [compound 5, 9-(3-O-amino-2-deoxy-β-D-erythro-pentofuranosyl)guanine] | – | – | 74.03
